{"source": "patent US20230272009A1", "about": "“Peptide, Peptide Salt, Pharmaceutical Composition and Biological Tissue Calcification Inhibitor” (Hiroshima University, priority 2020, published 2023)", "key": {"[1]": {"system": "caALK2Q207D mice", "assay": "Evaluation of drug efficacy in FOP model (µCT of leg region)", "assay_type": "in vivo", "settings": "Ad-Cre intramuscular, intraperitoneal 0.03 mg/mouse/day, day 6", "procedure": "Cre recombinase recombinant adenovirus (Ad-Cre, manufactured by Vector Biolabs) was intramuscularly administered (2 × 10^7 pfu) to the crural muscles (triceps muscles) of 7-day-old caALK2Q207D mice (Paul B Yu and the 14 others, “BMP type I receptor inhibition reduces heterotopic ossification” Nat Med, 2008, 14(12), 1363-1369). Next day, Example 5 was intraperitoneally administered (0.03 mg/mouse/day). On day 6, the leg region was immobilized with 4% para-formaldehyde PBS, and µCT images were acquired."}, "[2]": {"assay": "Evaluation of stability: residual rate in PBS by HPLC", "assay_type": "physicochemical", "settings": "37° C., 7 days or 14 days, HPLC peak area, sample before use set at 100", "procedure": "(§1) The amount of 1/20 to 1/25 of Comparative Example 2 or Example 5 (each 100 mM) was added to PBS or C57BL/6 mouse serum, and incubated at 37° C. for 7 days or 14 days. In measurement using the serum, 4 M perchloric acid (PCA) of which the amount was equal to the amount of a sample was added, and the resultant was diluted to 2-fold with MQ water and left to stand on ice for 5 minutes. The supernatant obtained by centrifugation for 2 minutes was subjected to HPLC (ODS column and 0.1% TFA/ acetonitrile). The residual rates of the test substances were calculated in a case in which the peak area of a sample adjusted before use was set at 100."}, "[3]": {"system": "thoracic aorta", "assay": "Calcification of cultured thoracic aorta rings under high phosphate load (headed 'in vivo calcification inhibitory activity')", "assay_type": "cell-based, C57BL/6 mouse", "settings": "for Calcification of thoracic aorta tissue (alizarin red staining): versus PBS solvent", "procedure": "The thoracic aorta was harvested from a C57BL/6 mouse (10-week-old male), and then cut into ring-shaped portions (2 to 3 mm), which were cultured in 10% FCS DMEM (Dulbecco’s Moodified Eagle’s Medium, high glucose). From the next day, the peptides were added, and the resultants were loaded together with phosphoric acid having a high concentration (sodium phosphate, final concentration of 3 mM), and cultured for 10 days. The tissues immobilized with PFA were stained with alizarin red, and the vessel walls were incised and opened, and observed with a stereoscopic microscope. Moreover, the contents of calcium in liquid extracts obtained by decalcifying the vessels, cultured in a similar manner, with 10% formic acid for 24 hours were measured using a calcium quantification kit (Calcium C-test Wako, manufactured by Wako Pure Chemical Industries, Ltd.)."}, "[4]": {"assay": "Evaluation of stability: residual rate in mouse serum by HPLC", "assay_type": "in vitro ADME", "settings": "C57BL/6 mouse serum, 37° C., 7 days or 14 days", "procedure": "as §1"}, "[5]": {"system": "Enpp1 mutated mice (C57BL/6J-Enpp1asj/asj)", "assay": "Evaluation of drug efficacy in GACI model (aortic calcification score)", "assay_type": "in vivo, mouse", "settings": "high phosphorus diet, continuous intravenous administration for 2 weeks by osmotic pump", "from_the_text": "The biallelic mutation of an Enpp1 gene is observed at 75% of GACI. Thus, the drug efficacy of the peptide was examined using Enpp1 mutated mice. Fertilized eggs from the Enpp1 mutated mice (C57BL/6J-Enpp1^asj/asj) were transplanted into ICR mice, and bred with a high phosphorus diet (AIN-93G-based, 0.4% Ca, 0.85% P, 0.04% Mg) immediately after deliveries. Male Enpp1^asj mice were weaned from the mothers 4 weeks after the births, and fed with a high phosphorus diet during an experimental period. […] A catheter was indwelled in the right cervical vein 6 to 7 weeks after the birth, and Example 5 was continuously administered for 2 weeks by an osmotic pump (manufactured by Altez). The thoracic (ventral) aorta was harvested, then immobilized with 4% para-formaldehyde PBS, washed, and then stained with alizarin red 0.5% KOH. The tissue was washed, and then preserved in 70% EtOH. For the obtained tissue, the calcification of the alizarin red-positive region of the thoracic aorta was scored (maximum value of 3) under the stereoscopic microscope."}, "[6]": {"system": "mouse osteoblast strain MC3T3-E1", "assay": "Examination of in vitro calcification inhibitory activity (von Kossa staining of matrix calcification)", "assay_type": "cell-based", "settings": "relative to Comparative Example 2 set at 100, MC3T3-E1, 3 mM βGP, 24 hours", "procedure": "A mouse osteoblast strain MC3T3-E1 was cultured in a bone differentiation medium (α MEM (Eagle’s minimum essential medium, alpha modification) + 50 µg/mL ascorbic acid, 10% fetal calf serum) to form osteoid-like nodules. In order to induce calcification, 3 mM β-glycerophosphoric acid (hereinafter, “βGP”) was added together with a test substance to the medium. The strain was cultured for 24 hours after the addition of the test substance, and cells were washed with PBS, immobilized with 10% neutral buffered formalin, and then subjected to von Kossa staining. The matrix calcification was evaluated by measurement of calcium spots stained with von Kossa in the extracellular matrices of alkaline phosphatase (ALP)-stained positive cells, which were osteoblastic markers, with a stereoscopic microscope."}, "[7]": {"system": "ddY mice", "assay": "Evaluation of safety, influence on osteogenesis (4-week continuous intravenous administration)", "assay_type": "in vivo, mouse", "settings": "4 weeks", "procedure": "Thus, toxicity, particularly an influence on osteogenesis was examined using Comparative Example 2, as described below.\nCatheters were indwelled in the jugular veins of 6-week-old ddY mice, and Comparative Example 2 was continuously administered at a high dose (1 mg/mouse/day) or low dose (0.1 mg/mouse/day) for 4 weeks using an osmotic pump (manufactured by Alzert). The low dose is 10 or more times as much as an effective drug efficacy concentration. Evaluation items were set to a body weight, the amount of intake of a food and drink, blood biochemistry (including calcium and phosphoric acid), the weights of principal organs, and histopathology. Moreover, bone structures were evaluated by µCT, and bone strengths were evaluated in a three-point bending test."}, "[8]": {"settings": "aorta rings, sodium phosphate 3 mM, cultured 10 days"}}, "note": "Square brackets hold non-standard residues; d marks the D form. Ends that are not written are not given here. pS = N[C@@H](COP(=O)(O)O)C(=O)O"}
{"substance": "Ac-SSESSESGSSSESD(C)-NH2 (N-Ac/chloroacetyl thioether cyclised, added C-terminal Cys amide; Phosphopeptide; MOD_RES (9)..(9) PHOSPHORYLATION; MOD_RES (11)..(11) PHOSPHORYLATION; MOD_RES (13)..(13) PHOSPHORYLATION) [Example 5]", "values": [{"measurement": "Calcification in leg region (µCT images)", "setting": "[1]", "result": "no calcification was confirmed"}, {"measurement": "Residual rate in PBS", "setting": "[2]", "result": "not decreased"}, {"measurement": "Calcium content per protein", "setting": "[3]; aorta rings loaded with phosphoric acid (Pi), decalcified with 10% formic acid, compared with Comparative Example 2", "result": "less than that in Comparative Example 2"}, {"measurement": "Calcification inhibitory effect compared with Comparative Example 2 (alizarin red staining)", "setting": "[3]; [8]", "result": "superior to that in Comparative Example 2"}, {"measurement": "Calcification of thoracic aorta tissue (alizarin red staining)", "setting": "[3]; [8]", "result": "calcification was inhibited"}, {"measurement": "Residual rate in mouse serum", "setting": "[4]", "result": "inhibited in comparison with Comparative Example 2"}, {"measurement": "Vascular calcification (calcification score of thoracic aorta, maximum value of 3)", "setting": "[5]", "result": "inhibited"}, {"measurement": "Calcification inhibitory activity (relative)", "setting": "[6]", "result": "500-1000<"}]}
{"substance": "DDSSESSDSGSSSESD (SEQ ID NO:12) (DDSSESSDSG[pS]S[pS]E[pS]D) [Example 1]", "values": [{"measurement": "Calcification inhibitory activity (relative)", "setting": "[6]", "result": 100}]}
{"substance": "RDDSSESSDSGSSSESDGD (SEQ ID NO:10) (ASARM peptide) [Comparative Example 1, reference compound]", "values": [{"measurement": "Calcification inhibitory activity (relative)", "setting": "[6]", "result": 0}]}
{"substance": "RDDSSESSDSGSSSESDGD (SEQ ID NO:11) (RDDSSESSDSG[pS]S[pS]E[pS]DGD) [Comparative Example 2, reference compound]", "values": [{"measurement": "Residual rate in PBS", "setting": "[2]", "result": "decreased over time"}, {"measurement": "Calcification of thoracic aorta tissue (alizarin red staining)", "setting": "[3]; [8]", "result": "calcification was inhibited"}, {"measurement": "Abnormal findings in body weight, intake of food and drink, blood biochemistry, weights of principal organs, histopathology", "setting": "[7]; 1 mg/mouse/day or 0.1 mg/mouse/day continuous intravenous", "result": "Any abnormal findings were not observed"}, {"measurement": "Bone volume (BV), bone mineral content (BMC), bone mineral density (BMD), bone strength (maximum load) versus PBS", "setting": "[7]; high and low doses, µCT and three-point bending test", "result": "no significant differences"}, {"measurement": "Calcification inhibitory activity (relative)", "setting": "[6]", "result": 100}]}
{"substance": "SSESSDSGSSSESD (SEQ ID NO:8) (SSESSDSG[pS]S[pS]E[pS]D) [Example 2]", "values": [{"measurement": "Calcification inhibitory activity (relative)", "setting": "[6]", "result": 100}]}
{"substance": "SSESSESGSSSESD (SEQ ID NO:9) (SSESSESG[pS]S[pS]E[pS]D) [Example 3]", "values": [{"measurement": "Calcification inhibitory activity (relative)", "setting": "[6]", "result": "200<"}]}
{"substance": "SSESSESGSSSESD (SEQ ID NO:13) (SSESSESGSS[pS]E[pS]D) [Example 4]", "values": [{"measurement": "Calcification inhibitory activity (relative)", "setting": "[6]", "result": "110<"}]}
